Activity calls are given as the source filed them. How the calls were made is not given here.
System: rodent carcinogenicity bioassays, tumor incidence
Test: CCRIS carcinogenicity studies
Method in brief: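 Archive of carcinogenicity, mutagenicity, tumor promotion and tumor inhibition results drawn from journals, NCI reports and other sources, expert-reviewed; covers 1985-2011 and is no longer updated.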

SMILES: CO[C@H]1/C=C/O[C@@]2(C)Oc3c(C)c(O)c4c(O)c(c(C=NN5CCN(C)CC5)c(O)c4c3C2=O)NC(=O)/C(C)=C\C=C\[C@H](C)[C@H](O)[C@@H](C)[C@@H](O)[C@@H](C)[C@H](OC(C)=O)[C@@H]1C
- carcinogen call (Species: MOUSE, Strain/Sex: C3F/FEMALE, Route: ORAL, Dose: 0.01, 0.03 0.06% IN DRINKING WATER WITH 0.05% SODIUM ASCORBATE FOR 60 WK, Tumor Site: Type of Lesion: LIVER: BENIGN TUMOR OR MALIGNANT TUMOR): active; positive

SMILES: CC1(C)O[C@@H]2C[C@H]3[C@@H]4CCC5=CC(=O)C=C[C@]5(C)[C@@]4(F)[C@@H](O)C[C@]3(C)[C@]2(C(=O)CO)O1
- carcinogen call (Species: RAT, Strain/Sex: SPRAGUE-DAWLEY/MALE, Route: ORAL, Dose: 0, 1.5 UG/ML IN DRINKING WATER FOR AN AVERAGE DAILY DOSE OF 12.7 UG/KG DURING WK10-20 THEN 4.8 UG/KG DURING WK 21-104 (S, Tumor Site: Type of Lesion: LIVER: HEPATOCELLULAR ADENOMA OR CARCINOMA): active; positive

SMILES: C[C@]12CCC(=O)C=C1CC[C@@H]1[C@@H]2CC[C@]2(C)C(=O)CC[C@@H]12
- carcinogen call (Species: Mouse, Strain/Sex: B6C3F1/Female (50/Group), Route: Oral, Dose: 0, 2, 10, 50 mg/kg in 0.5% methylcellulose solution, by gavage, 5 d/wk for 2 yr, Dose: 0, 2, 10, 50 mg/kg in 0.5% methylcellulose solution, by gavage, 5 d/wk for 2 yr, Tumor Site: Type of Lesion: Liver: hepatocellular adenoma (14/50, 16/50, 18/50, 28/50), hepatocellular carcinoma (5/50, 13/50, 15/50, 15/50), hepato, Tumor Site: Type of Lesion: Liver: hepatocellular adenoma (14/50, 16/50, 18/50, 28/50), hepatocellular carcinoma (5/50, 13/50, 15/50, 15/50), hepato): active; positive. (authors describe as clear evidence)
- carcinogen call (Species: Mouse, Strain/Sex: B6C3F1/Male (50/Group), Route: Oral, Dose: 0, 10, 20, 50 mg/kg in 0.5% methylcellulose solution, by gavage, 5 d/wk for 2 yr, Dose: 0, 10, 20, 50 mg/kg in 0.5% methylcellulose solution, by gavage, 5 d/wk for 2 yr, Tumor Site: Type of Lesion: Liver: hepatocellular adenoma, multiple (16/50, 27/50, 23/50, 34/50), hepatocellular adenoma (includes multiples) (32/50): active; positive. (authors describe as clear evidence)
- carcinogen call (Species: Rat, Strain/Sex: F344/N / Female (50/Group), Route: Oral, Dose: 0, 10, 20, 50 mg/kg in 0.5% methylcellulose solution, by gavage, 5 d/wk for 2 yr, Dose: 0, 10, 20, 50 mg/kg in 0.5% methylcellulose solution, by gavage, 5 d/wk for 2 yr): inactive; negative. (authors describe as equivocal evidence based on incidence of mononucl
- carcinogen call (Species: Rat, Strain/Sex: F344/N / Male (50/Group), Route: Oral, Dose: 0, 10, 20, 50 mg/kg in 0.5% methylcellulose solution, by gavage, 5 d/wk for 2 yr, Dose: 0, 10, 20, 50 mg/kg in 0.5% methylcellulose solution, by gavage, 5 d/wk for 2 yr): inactive; negative. (authors describe as equivocal evidence based on alveolar/bronchiolar

SMILES: C[C@H]([C@H](O)CCC(C)(C)O)[C@H]1CC[C@@]2(O)C3=CC(=O)[C@@H]4C[C@@H](O)[C@@H](O)C[C@]4(C)[C@H]3CC[C@]12C
- carcinogen call (Species: MOUSE, Strain/Sex: SWISS/FEMALE, Route: ORAL, Dose: 0, 3 PPM/25 G BW IN DIET FOR 22 MO (STUDY DURATION: 22 MO), Tumor Site: Type of Lesion: MAMMARY GLAND: TUMOR, LUNG: TUMOR): active; positive
- carcinogen call (Species: MOUSE, Strain/Sex: SWISS/MALE, Route: ORAL, Dose: 0, 3 PPM/25 G BW IN DIET FOR 22 MO (STUDY DURATION: 22 MO), Tumor Site: Type of Lesion: LUNG: TUMOR): active; positive

SMILES: C=CC(=O)OCCCCCC(C)C
- carcinogen call (Species: MOUSE, Strain/Sex: C3H/MALE, Route: DERMAL, Dose: 25 µL (5% V/V) IN ACETONE APPLIED TO BACK 3 D/WK FOR LIFE (STUDY DURATION: LIFE)): inactive; negative

SMILES: COc1ccc2c3c(cccc13)OC([N+](=O)[O-])=C2
- carcinogen call (Species: RAT, Strain/Sex: WISTAR/MALE, Route: SUBCUTANEOUS, Dose: 0, 0.5 MG IN DMSO 1/WK FOR DURATION OF STUDY (TOTAL DOSE: 0; 10.23 MG) (STUDY DURATION: 156 D), Dose: 0, 0.5 MG IN DMSO 1/WK FOR DURATION OF STUDY (TOTAL DOSE: 0; 10.23 MG) (STUDY DURATION: 156 D), Tumor Site: Type of Lesion: INJECTION SITE: FIBROSARCOMA): active; positive

SMILES: CCCCN(CCCCO)N=O
- carcinogen call (Species: MOUSE, Strain/Sex: B6C3F1/MALE, Route: ORAL, Dose: 0, 0.05% IN DRINKING WATER FOR 12 WK (STUDY DURATION: 20 WK), Tumor Site: Type of Lesion: BLADDER: SQUAMOUS CELL CARCINOMA): active; positive
- carcinogen call (Species: MOUSE, Strain/Sex: B6D2F1/FEMALE, Route: ORAL, Dose: 0, 523 MG/L IN DRINKING WATER FOR 13 WK (STUDY DURATION: 28 WK), Tumor Site: Type of Lesion: URINARY BLADDER: TUMOR): active; positive
- carcinogen call (Species: MOUSE, Strain/Sex: B6D2F1/MALE, Route: ORAL, Dose: 0, 0.05% IN DRINKING WATER FOR 26 WK (STUDY DURATION: 26 WK), Tumor Site: Type of Lesion: URINARY BLADDER: TRANSITIONAL CELL CARCINOMA): active; positive
- carcinogen call (Species: MOUSE, Strain/Sex: B6D2F1/MALE, Route: ORAL, Dose: 0, 5 MG TWICE/WK BY GAVAGE FOR 10 WK (STUDY DURATION: 30 WK), Tumor Site: Type of Lesion: URINARY BLADDER: TRANSITIONAL CELL CARCINOMA): active; positive
- carcinogen call (Species: MOUSE, Strain/Sex: B6D2F1/MALE, Route: ORAL, Dose: 0, 523 MG/L IN DRINKING WATER FOR 13 WK (STUDY DURATION: 28 WK), Tumor Site: Type of Lesion: URINARY BLADDER: TUMOR): active; positive
- carcinogen call (Species: MOUSE, Strain/Sex: DS/SHI/MALE, Route: ORAL, Dose: 0, 0.05% IN DRINKING WATER FOR 12 WK (STUDY DURATION: 20 WK), Tumor Site: Type of Lesion: BLADDER: TRANSITIONAL CELL CARCINOMA): active; positive
- carcinogen call (Species: MOUSE, Strain/Sex: NON/SHI/MALE, Route: ORAL, Dose: 0, 0.05% IN DRINKING WATER FOR 4 WK (STUDY DURATION: 36 WK), Tumor Site: Type of Lesion: KIDNEY: TRANSITIONAL CELL CARCINOMA PAPILLOMA, BLADDER: TRANSITIONAL CELL CARCINOMA): active; positive
- carcinogen call (Species: MOUSE, Strain/Sex: NON/SHI/MALE, Route: ORAL, Dose: 0, 0.05% IN DRINKING WATER FOR 12 WK (STUDY DURATION: 20 WK), Tumor Site: Type of Lesion: KIDNEY: TRANSITIONAL CELL CARCINOMA, SQUAMOUS CELL CARCINOMA, BLADDER: TRANSITIONAL CELL CARCINOMA): active; positive
- carcinogen call (Species: Mouse, Strain/Sex: Nrf2-/-, p53+/-, Nrf2-/-::p53+/-, and wild type, Route: Oral, Dose: 0.05% in drinking water for 8 wk, study duration 8 wk): urinary bladder: carcinoma, 63.0% in nrf2-/- mice, 75.8% in p53+/- mice, 89.6% i
- carcinogen call (Species: RAT, Strain/Sex: ACI/MALE, Route: ORAL, Dose: 0, 0.05% IN DRINKING WATER FOR 4-24 WK, Tumor Site: Type of Lesion: URINARY BLADDER: PAPILLOMA, TRANSITIONAL CELL CARCINOMA, SQUAMOUS CELL CARCINOMA): active; positive
- carcinogen call (Species: RAT, Strain/Sex: F344/MALE, Route: ORAL, Dose: 0, 0.05% IN DRINKING WATER FOR 10 WK (STUDY DURATION: 20 WK), Tumor Site: Type of Lesion: URINARY BLADDER: TRANSITIONAL CELL CARCINOMA): active; positive
- carcinogen call (Species: RAT, Strain/Sex: F344/MALE, Route: ORAL, Dose: 0, 1, 5, 10, 50 PPM IN DRINKING WATER FOR 112 WK (STUDY DURATION: 112 WK), Dose: 0, 1, 5, 10, 50 PPM IN DRINKING WATER FOR 112 WK (STUDY DURATION: 112 WK), Tumor Site: Type of Lesion: BLADDER: CARCINOMA, PAPILLOMA): active; positive

SMILES: C[C@]12CC[C@@H]3c4ccc(OC(=O)c5ccccc5)cc4CC[C@H]3[C@@H]1CC[C@@H]2O
- carcinogen call (Species: MOUSE, Route: SUBCUTANEOUS, Tumor Site: Type of Lesion: TESTES, PITUITARY GLAND, CERVIX, UTERUS, Tumor Site: Type of Lesion: TESTES, PITUITARY GLAND, CERVIX, UTERUS): active; positive
- carcinogen call (Species: RAT, Route: SUBCUTANEOUS IMPLANT, Tumor Site: Type of Lesion: PITUITARY GLAND): active; positive

SMILES: CCC[CH2][Sn]([CH2]CCC)([CH2]CCC)[O][Sn]([CH2]CCC)([CH2]CCC)[CH2]CCC
- carcinogen call (Species: RAT, Strain/Sex: WISTAR/FEMALE, Route: ORAL, Dose: 0, 0.5, 5, 50 MG/KG DIET FOR 30 MO (STUDY DURATION: 30 MO), Dose: 0, 0.5, 5, 50 MG/KG DIET FOR 30 MO (STUDY DURATION: 30 MO), Tumor Site: Type of Lesion: ADRENAL GLAND: PHEOCHROMOCYTOMA, PITUITARY: TUMOR): active; positive
- carcinogen call (Species: RAT, Strain/Sex: WISTAR/MALE, Route: ORAL, Dose: 0, 0.5, 5, 50 MG/KG DIET FOR 30 MO (STUDY DURATION: 30 MO), Dose: 0, 0.5, 5, 50 MG/KG DIET FOR 30 MO (STUDY DURATION: 30 MO), Tumor Site: Type of Lesion: ADRENAL GLAND: PHEOCHROMOCYTOMA, PITUITARY: TUMOR, PARATHYROID: ADENOMA, Tumor Site: Type of Lesion: ADRENAL GLAND: PHEOCHROMOCYTOMA, PITUITARY: TUMOR, PARATHYROID: ADENOMA): active; positive

— PubChem BioAssay AID1259411 (Chemical Carcinogenesis Research Information System (CCRIS), 2018)
